# Where a name gives a salt, the structure may show the parent alone.
# Experiments:
# [1] = biological target: ATP-binding cassette sub-family C member 3 (Homo sapiens, UniProt O15438); experiment: Inhibition of human MRP3 overexpressed in Sf9 insect cell membrane vesicles assessed as uptake of [3H]-estradiol-17beta-D-glucuronide in presence of ATP and GSH measured after 10 mins by membrane vesicle transport assay; type: ADME, cell-based
# Bile salt export pump = Bile salt export pump (Homo sapiens, UniProt O95342); experiment: Inhibition of human BSEP overexpressed in Sf9 cell membrane vesicles assessed as uptake of [3H]-taurocholate in presence of ATP measured after 15 to 20 mins by membrane vesicle transport assay; type: ADME, cell-based
# [2] = biological target: T1, ATP-binding cassette sub-family C member 4 (Homo sapiens, UniProt O15439); experiment: Inhibition of human MRP4 overexpressed in Sf9 cell membrane vesicles assessed as uptake of [3H]-estradiol-17beta-D-glucuronide in presence of ATP and GSH measured after 20 mins by membrane vesicle transport assay; type: ADME, cell-based
# T1 sequence (O15439 whole entry): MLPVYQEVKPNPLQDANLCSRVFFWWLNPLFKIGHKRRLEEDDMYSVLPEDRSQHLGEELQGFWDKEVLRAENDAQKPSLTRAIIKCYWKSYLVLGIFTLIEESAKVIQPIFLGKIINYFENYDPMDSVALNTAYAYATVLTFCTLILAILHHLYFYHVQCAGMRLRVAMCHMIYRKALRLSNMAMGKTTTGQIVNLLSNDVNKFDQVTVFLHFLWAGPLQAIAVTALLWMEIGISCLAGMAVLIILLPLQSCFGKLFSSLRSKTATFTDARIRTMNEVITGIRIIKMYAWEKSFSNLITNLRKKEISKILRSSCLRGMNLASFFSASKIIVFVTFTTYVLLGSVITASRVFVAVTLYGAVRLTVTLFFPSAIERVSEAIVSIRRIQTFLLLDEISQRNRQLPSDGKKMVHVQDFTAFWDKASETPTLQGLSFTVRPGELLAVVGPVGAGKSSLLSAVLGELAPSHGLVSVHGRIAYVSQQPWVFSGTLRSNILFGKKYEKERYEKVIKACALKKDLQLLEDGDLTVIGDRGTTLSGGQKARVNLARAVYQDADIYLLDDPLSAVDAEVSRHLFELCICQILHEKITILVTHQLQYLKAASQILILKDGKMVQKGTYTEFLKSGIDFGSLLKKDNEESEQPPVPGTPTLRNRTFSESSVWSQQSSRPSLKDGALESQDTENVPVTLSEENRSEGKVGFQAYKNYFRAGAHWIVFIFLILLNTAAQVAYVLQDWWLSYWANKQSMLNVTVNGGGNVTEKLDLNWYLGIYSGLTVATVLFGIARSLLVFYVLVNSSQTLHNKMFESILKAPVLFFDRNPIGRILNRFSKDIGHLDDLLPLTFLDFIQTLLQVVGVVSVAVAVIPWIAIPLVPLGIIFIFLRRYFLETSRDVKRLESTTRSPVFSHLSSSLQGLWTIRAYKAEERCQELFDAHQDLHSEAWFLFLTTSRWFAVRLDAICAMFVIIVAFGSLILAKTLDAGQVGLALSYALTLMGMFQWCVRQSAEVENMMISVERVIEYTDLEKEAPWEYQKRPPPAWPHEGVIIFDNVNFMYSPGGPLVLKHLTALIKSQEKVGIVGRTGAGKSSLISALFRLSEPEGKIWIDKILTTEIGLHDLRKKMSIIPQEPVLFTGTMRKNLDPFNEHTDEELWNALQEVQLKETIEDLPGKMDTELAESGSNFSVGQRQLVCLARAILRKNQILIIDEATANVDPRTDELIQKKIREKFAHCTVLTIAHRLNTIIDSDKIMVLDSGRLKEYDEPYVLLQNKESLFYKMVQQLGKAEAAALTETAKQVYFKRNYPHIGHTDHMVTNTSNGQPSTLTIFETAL
# [3] = biological target: ATP-binding cassette sub-family C member 2 (Homo sapiens, UniProt Q92887); experiment: Inhibition of human MRP2 overexpressed in Sf9 cell membrane vesicles assessed as uptake of [3H]-estradiol-17beta-D-glucuronide in presence of ATP and GSH measured after 20 mins by membrane vesicle transport assay
# ATP-binding cassette sub-family C member 2, sequence (Q92887 whole entry): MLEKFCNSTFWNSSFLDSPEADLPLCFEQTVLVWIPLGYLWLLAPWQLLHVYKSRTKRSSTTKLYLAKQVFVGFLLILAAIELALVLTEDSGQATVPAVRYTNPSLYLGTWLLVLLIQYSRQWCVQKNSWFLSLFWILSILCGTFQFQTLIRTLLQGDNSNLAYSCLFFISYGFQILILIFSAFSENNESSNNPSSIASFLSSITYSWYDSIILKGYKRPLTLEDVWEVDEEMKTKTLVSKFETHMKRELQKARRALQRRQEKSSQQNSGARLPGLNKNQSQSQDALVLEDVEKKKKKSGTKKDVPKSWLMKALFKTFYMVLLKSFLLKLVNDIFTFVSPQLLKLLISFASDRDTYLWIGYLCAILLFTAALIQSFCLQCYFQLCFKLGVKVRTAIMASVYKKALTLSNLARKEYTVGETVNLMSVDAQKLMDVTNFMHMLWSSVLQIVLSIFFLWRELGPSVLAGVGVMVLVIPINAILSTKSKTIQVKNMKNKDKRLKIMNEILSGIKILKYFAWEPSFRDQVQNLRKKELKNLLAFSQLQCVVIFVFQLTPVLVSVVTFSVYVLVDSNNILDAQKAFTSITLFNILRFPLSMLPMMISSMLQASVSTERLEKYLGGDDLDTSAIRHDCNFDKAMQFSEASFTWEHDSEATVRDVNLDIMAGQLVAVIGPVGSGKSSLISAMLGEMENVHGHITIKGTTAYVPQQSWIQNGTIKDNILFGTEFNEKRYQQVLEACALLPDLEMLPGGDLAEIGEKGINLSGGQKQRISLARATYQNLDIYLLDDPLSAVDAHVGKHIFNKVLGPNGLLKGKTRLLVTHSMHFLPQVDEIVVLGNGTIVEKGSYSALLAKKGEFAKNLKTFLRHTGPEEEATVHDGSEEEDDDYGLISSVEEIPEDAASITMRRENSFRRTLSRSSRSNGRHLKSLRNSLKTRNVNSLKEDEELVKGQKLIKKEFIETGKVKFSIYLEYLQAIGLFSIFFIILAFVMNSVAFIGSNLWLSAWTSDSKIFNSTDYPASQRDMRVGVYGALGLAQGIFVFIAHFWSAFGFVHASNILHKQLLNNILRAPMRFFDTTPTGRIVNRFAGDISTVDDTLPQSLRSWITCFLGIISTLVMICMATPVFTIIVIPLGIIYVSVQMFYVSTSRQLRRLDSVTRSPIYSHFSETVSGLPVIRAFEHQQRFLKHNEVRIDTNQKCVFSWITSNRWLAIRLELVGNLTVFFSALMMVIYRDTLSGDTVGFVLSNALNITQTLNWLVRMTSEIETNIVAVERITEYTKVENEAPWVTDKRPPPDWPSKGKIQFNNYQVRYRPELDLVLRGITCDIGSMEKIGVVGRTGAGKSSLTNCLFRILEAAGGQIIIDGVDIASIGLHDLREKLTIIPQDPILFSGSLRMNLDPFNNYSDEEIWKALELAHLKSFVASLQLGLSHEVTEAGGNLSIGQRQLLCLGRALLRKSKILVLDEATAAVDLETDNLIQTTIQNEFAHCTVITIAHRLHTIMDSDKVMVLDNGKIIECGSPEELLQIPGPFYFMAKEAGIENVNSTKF
# ATP-binding cassette sub-family C member 3, sequence (O15438 whole entry): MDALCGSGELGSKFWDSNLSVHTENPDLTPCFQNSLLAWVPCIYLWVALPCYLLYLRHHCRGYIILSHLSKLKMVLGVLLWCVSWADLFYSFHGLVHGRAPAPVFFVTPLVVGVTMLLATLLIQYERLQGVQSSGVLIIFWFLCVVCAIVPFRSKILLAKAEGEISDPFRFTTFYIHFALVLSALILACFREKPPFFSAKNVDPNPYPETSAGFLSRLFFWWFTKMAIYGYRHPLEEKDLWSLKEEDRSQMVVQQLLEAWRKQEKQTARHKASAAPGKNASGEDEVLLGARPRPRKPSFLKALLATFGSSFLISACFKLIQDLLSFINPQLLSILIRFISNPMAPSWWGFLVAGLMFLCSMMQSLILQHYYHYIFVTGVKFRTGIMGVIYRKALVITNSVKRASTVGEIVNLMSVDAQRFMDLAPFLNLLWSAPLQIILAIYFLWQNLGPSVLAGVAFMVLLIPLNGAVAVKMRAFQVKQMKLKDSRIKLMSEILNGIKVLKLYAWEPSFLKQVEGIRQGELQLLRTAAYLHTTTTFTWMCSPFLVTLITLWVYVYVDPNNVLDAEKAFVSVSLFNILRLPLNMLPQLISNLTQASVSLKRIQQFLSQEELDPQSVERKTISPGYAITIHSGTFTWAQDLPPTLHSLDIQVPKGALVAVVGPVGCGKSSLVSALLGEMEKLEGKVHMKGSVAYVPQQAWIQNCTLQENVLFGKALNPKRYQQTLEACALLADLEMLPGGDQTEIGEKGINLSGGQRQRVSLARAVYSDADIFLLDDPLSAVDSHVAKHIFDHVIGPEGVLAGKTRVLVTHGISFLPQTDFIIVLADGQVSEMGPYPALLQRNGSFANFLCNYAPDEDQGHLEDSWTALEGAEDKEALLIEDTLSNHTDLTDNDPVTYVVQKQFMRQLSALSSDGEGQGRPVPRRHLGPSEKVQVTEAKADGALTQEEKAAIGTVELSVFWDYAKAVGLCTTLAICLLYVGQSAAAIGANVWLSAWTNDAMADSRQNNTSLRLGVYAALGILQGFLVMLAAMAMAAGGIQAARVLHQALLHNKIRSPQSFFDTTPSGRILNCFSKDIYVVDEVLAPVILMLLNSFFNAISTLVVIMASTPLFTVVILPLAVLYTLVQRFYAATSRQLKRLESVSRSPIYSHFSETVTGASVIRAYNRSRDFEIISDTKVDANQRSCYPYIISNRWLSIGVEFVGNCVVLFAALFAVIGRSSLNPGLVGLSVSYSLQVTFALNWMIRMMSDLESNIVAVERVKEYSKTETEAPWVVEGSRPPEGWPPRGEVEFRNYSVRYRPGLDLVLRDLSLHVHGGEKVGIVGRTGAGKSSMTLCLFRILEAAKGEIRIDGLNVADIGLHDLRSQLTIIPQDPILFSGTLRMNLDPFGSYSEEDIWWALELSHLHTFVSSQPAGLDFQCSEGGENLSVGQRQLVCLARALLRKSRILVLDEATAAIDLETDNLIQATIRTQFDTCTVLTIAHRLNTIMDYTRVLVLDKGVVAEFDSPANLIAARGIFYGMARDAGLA
# Bile salt export pump, sequence (O95342 whole entry): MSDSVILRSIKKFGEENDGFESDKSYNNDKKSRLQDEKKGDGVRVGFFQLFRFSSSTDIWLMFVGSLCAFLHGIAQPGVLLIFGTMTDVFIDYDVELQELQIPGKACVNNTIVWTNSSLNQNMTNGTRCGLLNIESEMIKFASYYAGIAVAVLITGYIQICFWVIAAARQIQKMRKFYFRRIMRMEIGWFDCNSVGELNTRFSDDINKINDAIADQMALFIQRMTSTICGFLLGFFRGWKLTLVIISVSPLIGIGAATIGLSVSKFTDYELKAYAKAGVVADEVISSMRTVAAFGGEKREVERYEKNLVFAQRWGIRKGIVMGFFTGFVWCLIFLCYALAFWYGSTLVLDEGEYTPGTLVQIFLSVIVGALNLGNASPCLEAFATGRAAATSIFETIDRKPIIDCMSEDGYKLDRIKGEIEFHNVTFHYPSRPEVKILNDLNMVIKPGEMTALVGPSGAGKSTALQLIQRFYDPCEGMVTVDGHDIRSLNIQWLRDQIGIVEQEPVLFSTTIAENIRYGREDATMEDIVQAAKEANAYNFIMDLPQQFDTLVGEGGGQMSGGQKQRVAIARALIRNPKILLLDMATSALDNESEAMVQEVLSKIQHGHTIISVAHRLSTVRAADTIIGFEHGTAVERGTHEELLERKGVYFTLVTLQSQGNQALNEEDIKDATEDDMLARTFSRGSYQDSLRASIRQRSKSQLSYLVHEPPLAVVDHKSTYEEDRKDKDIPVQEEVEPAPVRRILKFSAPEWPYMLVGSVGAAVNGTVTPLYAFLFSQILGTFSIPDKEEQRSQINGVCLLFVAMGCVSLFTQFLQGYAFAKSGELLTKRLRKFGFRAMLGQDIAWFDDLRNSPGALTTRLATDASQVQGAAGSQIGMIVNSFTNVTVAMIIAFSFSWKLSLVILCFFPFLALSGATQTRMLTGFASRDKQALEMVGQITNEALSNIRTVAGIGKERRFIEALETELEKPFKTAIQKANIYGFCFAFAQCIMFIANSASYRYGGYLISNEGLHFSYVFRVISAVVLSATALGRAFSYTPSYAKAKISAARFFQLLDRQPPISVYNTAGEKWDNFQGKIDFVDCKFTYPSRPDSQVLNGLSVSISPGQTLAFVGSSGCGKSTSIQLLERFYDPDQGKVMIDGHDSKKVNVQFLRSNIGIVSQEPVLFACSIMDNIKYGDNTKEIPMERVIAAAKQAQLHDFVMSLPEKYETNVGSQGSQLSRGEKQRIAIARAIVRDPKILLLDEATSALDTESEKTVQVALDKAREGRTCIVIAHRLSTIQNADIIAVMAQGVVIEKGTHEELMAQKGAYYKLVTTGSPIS
Molecule,IC50 [1],IC50 (Bile salt export pump),IC50 [2],IC50 [3]
NS(=O)(=O)c1cc2c(cc1C(F)(F)F)NCNS2(=O)=O [HYDROFLUMETHIAZIDE],> 133 µM,> 133 µM,> 133 µM,> 133 µM
Nc1nc(=O)[nH]cc1F [FLUCYTOSINE],> 133 µM,> 133 µM,> 133 µM,> 133 µM
CCCc1nn(C)c2c(=O)[nH]c(-c3cc(S(=O)(=O)N4CCN(C)CC4)ccc3OCC)nc12 [SILDENAFIL CITRATE],> 133 µM,132 µM,,> 133 µM
C[C@@H](O)[C@H]1C(=O)N2C(C(=O)O)=C(S[C@@H]3CN[C@H](C(=O)Nc4cccc(C(=O)O)c4)C3)[C@H](C)[C@H]12,> 133 µM,> 133 µM,> 133 µM,56.2 µM
C[C@@H]1CC[C@H]2[C@@H](C)C(=O)O[C@@H]3O[C@@]4(C)CC[C@@H]1[C@]32OO4 [ARTEMISININ],> 133 µM,> 133 µM,> 133 µM,> 133 µM
CCN1CCC[C@H]1CNC(=O)c1cc(S(N)(=O)=O)ccc1OC [LEVOSULPIRIDE],> 133 µM,> 133 µM,> 133 µM,> 133 µM
enfuvirtide,> 133 µM,> 133 µM,7.5 µM,> 133 µM
Nc1ccn([C@H]2CC[C@@H](CO)O2)c(=O)n1 [ZALCITABINE],> 133 µM,> 133 µM,> 133 µM,> 133 µM
CN(C)CC[C@@H](c1ccc(Cl)cc1)c1ccccn1 [DEXCHLORPHENIRAMINE MALEATE],> 133 µM,> 133 µM,> 133 µM,> 133 µM
CCCN[C@H]1CCc2nc(N)sc2C1 [PRAMIPEXOLE],> 133 µM,> 133 µM,> 133 µM,> 133 µM
CC1CCN(CCCC(=O)c2ccc(F)cc2)CC1 [MELPERONE],> 133 µM,> 133 µM,> 133 µM,> 133 µM
Cc1onc(-c2ccccc2)c1-c1ccc(S(N)(=O)=O)cc1 [VALDECOXIB],> 133 µM,> 133 µM,> 133 µM,> 133 µM
CNCCCN1c2ccccc2CCc2ccccc21 [DESIPRAMINE],> 133 µM,> 133 µM,> 133 µM,> 133 µM
Nc1nc(F)nc2c1ncn2[C@@H]1O[C@H](COP(=O)(O)O)[C@@H](O)[C@@H]1O [FLUDARABINE PHOSPHATE],> 133 µM,> 133 µM,> 133 µM,> 133 µM
Nc1c(CC(=O)O)cccc1C(=O)c1ccc(Br)cc1 [BROMFENAC],> 133 µM,> 133 µM,> 133 µM,
C[C@H](CS)C(=O)N1CCC[C@H]1C(=O)O [CAPTOPRIL],> 133 µM,> 133 µM,> 133 µM,> 133 µM
CN(C)CCCN1c2ccccc2Sc2ccc(Cl)cc21 [CHLORPROMAZINE],> 133 µM,> 133 µM,> 133 µM,> 133 µM
CC1=NS(=O)(=O)c2cc(Cl)ccc2N1 [DIAZOXIDE],> 133 µM,> 133 µM,> 133 µM,> 133 µM
CCC1(c2ccccc2)C(=O)NCNC1=O [PRIMIDONE],> 133 µM,> 133 µM,> 133 µM,> 133 µM
C#C[C@]1(O)CC[C@H]2[C@@H]3CCC4=CC(=O)CC[C@@H]4[C@H]3CC[C@@]21CC [LEVONORGESTREL],> 133 µM,> 133 µM,> 133 µM,> 133 µM
Cn1c(=O)n(-c2ccc(C(C)(C)C#N)cc2)c2c3cc(-c4cnc5ccccc5c4)ccc3ncc21 [DACTOLISIB],> 133 µM,7.9 µM,> 133 µM,> 133 µM
CC(=O)[C@H]1[C@H](C#N)C[C@H]2[C@@H]3CC=C4C[C@@H](O)CC[C@]4(C)[C@H]3CC[C@@]21C [PREGNENOLONE CARBONITRILE],> 133 µM,> 133 µM,> 133 µM,

Molecule,IC50 [1],IC50 (Bile salt export pump),IC50 [2],IC50 [3]
NC(=O)N1c2ccccc2CC(=O)c2ccccc21 [OXCARBAZEPINE],> 133 µM,> 133 µM,> 133 µM,> 133 µM
CC(C)C(=O)Oc1ccc(CO)cc1[C@H](CCN(C(C)C)C(C)C)c1ccccc1 [FESOTERODINE FUMARATE],> 133 µM,> 133 µM,> 133 µM,> 133 µM
CN(C)/N=N/c1[nH]cnc1C(N)=O [DACARBAZINE],> 133 µM,> 133 µM,> 133 µM,> 133 µM
O=c1n(CCCN2CCN(c3cccc(Cl)c3)CC2)nc2ccccn12 [TRAZODONE HYDROCHLORIDE],> 133 µM,> 133 µM,> 133 µM,
O=C(O)COC(=O)Cc1ccccc1Nc1c(Cl)cccc1Cl [ACECLOFENAC],> 133 µM,105 µM,> 133 µM,
O=c1n(CCCN2CCN(c3cccc(Cl)c3)CC2)nc2ccccn12 [TRAZODONE],> 133 µM,> 133 µM,> 133 µM,
CCCCNc1cc(C(=O)O)cc(S(N)(=O)=O)c1Oc1ccccc1 [BUMETANIDE],> 133 µM,> 133 µM,> 133 µM,
C[C@](N)(Cc1ccc(O)c(O)c1)C(=O)O,41.2 µM,> 133 µM,8.08 µM,
CCOC(=O)[C@H](CCc1ccccc1)N[C@@H](C)C(=O)N1Cc2ccccc2C[C@H]1C(=O)O,> 133 µM,94 µM,> 133 µM,
CC1=C(CC(=O)O)c2cc(F)ccc2/C1=C\c1ccc([S+](C)[O-])cc1 (centres undefined),> 133 µM,> 133 µM,> 133 µM,
CN1C(=O)CN=C(c2ccccc2)c2cc(Cl)ccc21 [DIAZEPAM],> 133 µM,> 133 µM,> 133 µM,
CC(=O)Nc1ccc(S(=O)(=O)Nc2ccc([N+](=O)[O-])cc2)cc1,> 133 µM,> 133 µM,> 133 µM,
COc1cc2nc(N3CCN(C(=O)c4ccco4)CC3)nc(N)c2cc1OC [PRAZOSIN],> 133 µM,> 133 µM,12.5 µM,
CCOC(=O)C1=C(C)NC(C)=C(C(=O)OC)C1c1cccc([N+](=O)[O-])c1 (centres undefined) [NITRENDIPINE],> 133 µM,22.5 µM,> 133 µM,
CCCCCC[C@H]1C(=O)O[C@H](C)[C@H](NC(=O)c2cccc(NC=O)c2O)C(=O)O[C@@H](C)[C@@H]1OC(=O)CC(C)C [ANTIMYCIN A],> 133 µM,59.6 µM,> 133 µM,
Cc1cnc(NC(=O)C2=C(O)c3ccccc3S(=O)(=O)N2C)s1 [MELOXICAM],> 133 µM,77.5 µM,> 133 µM,
CCOC(=O)[C@H](CCc1ccccc1)N[C@@H](C)C(=O)N1[C@H](C(=O)O)C[C@H]2CCCC[C@@H]21 [TRANDOLAPRIL],> 133 µM,> 133 µM,> 133 µM,
N#C/C(=C1/SCC(c2ccccc2Cl)S1)n1ccnc1 (centres undefined) [LANOCONAZOLE],> 133 µM,9.65 µM,> 133 µM,
Cc1cc(C2CCCCC2)n(O)c(=O)c1 [CICLOPIROX],> 133 µM,> 133 µM,> 133 µM,
BIVALIRUDIN,,> 133 µM,> 133 µM,> 133 µM
CC(C)(Oc1ccc(C2CC2(Cl)Cl)cc1)C(=O)O (centres undefined) [CIPROFIBRATE],> 133 µM,> 133 µM,> 133 µM,
Cc1ccc(C)c(OCCCC(C)(C)C(=O)O)c1 [GEMFIBROZIL],> 133 µM,> 133 µM,> 133 µM,

# Reference: ChEMBL document CHEMBL4028801, “A multifactorial approach to hepatobiliary transporter assessment enables improved therapeutic compound development” (Toxicol Sci, 2013)
